Laboratory results taken from patent publication US20010033847A1, “DERMATOLOGIC PREPARATION” (priority 1996, published 2001).

Test system: affected regions of atopic patients
Assay: itch and area of inflammation after 1 week of application in atopic patients
Assay type: in vivo, human
Settings: number of 3 atopic patients; daily application for 1 week
Protocol: The dermatologic preparations of Examples 1 to 3 and the dermatologic preparations for comparison of Reference Examples 1 to 3 were evaluated for itch and the area of inflammation 1 week after application.
To the affected regions of 3 atopic patients (1 adult, 1 adult, and 1 child), was applied an adequate amount of each oil produced in Examples 1 to 3 and Reference Examples 1 to 3 after bathing every day. After application for 1 week, itch and the inflammatory area were evaluated. During the treatment period, the drugs used previously were continued. In the child who could not describe itch, itch was evaluated based on the behavior of scratching at the affected region.

With “1,3-dioctanoyl-2-eicosapentaenoyl glycerol [Example 2]” the “inflammatory area: no change” value was 0 patients, the “inflammatory area: reduced” value was 3 patients and the “inflammatory area: widened” value was 0 patients. The “itch: improved” value was 3 patients, the “itch: no change” value was 0 patients and the “itch: worsened” value was 0 patients.
